Columns and labels:
Type in all cases: cell-based
[1] = tested on: human dermal fibroblasts (HDF); assay: SAβG activity staining in senescent human fibroblasts; conditions: 4 days; for SAβG activity: 100 nM
Description: Each cell was treated in a serum-free culture solution containing 0.5 μM doxorubicin for 4 hours. After washing the cells with a serum-free culture solution, the cells were cultured for 4 days in a culture solution containing 10% FBS, and then cellular aging was confirmed by staining with senescence-associated beta galactosidase (SAβG). After dispensing 2×10^5 cells in a 100 mm culture dish, they were cultured in a 37° C., 5% CO2 incubator. When the cells grew to 80-90% in the culture dish, the cells were removed by treatment with trypsin-EDTA, and the number of cells was measured, and the cell population doubling time (PDT) was measured. By successively subculturing the cells in the same process as described above, replication aging was induced. PDT of young fibroblasts was 36 hours, PDT of replicative senescent fibroblasts was 12 days, PDT of young vascular endothelial cells was 24 hours, and PDT of replicative senescent vascular endothelial cells was 7 days. After each sample was dissolved in DMSO, young cells, replicative senescent cells, and premature senescent cells treated with doxorubicin were treated with 100 nM zotarolimus, 100 nM rapamycin, 100 nM ABT263, respectively. After incubation for 4 days in a 37° C., 5% CO2 incubator, the degree of cell growth was confirmed by CCK-8 analysis, the degree of cellular aging was confirmed by senescence-related beta-galactosidase (SAβG) staining, The cells were washed with 1× phosphate buffer solution, and fixed with a phosphate buffer solution containing 3.7% (v/v) paraformaldehyde. After adding 1 mg/ml 5-bromo-4-chloro-3-indolyl-6-D-galactoside, 40 mM citric acid-sodium phosphate (pH 6.0), 5 mM potassium ferricyanide, 5 mM potassium ferrocyanide, 150 mM NaCl, and 2 mM MgCl2 solution, it was reacted at 37° C. for 18 hours. It was stained with eosin as a control stain. Cells stained blue in the cytoplasm were identified using an optical microscope. Human fibroblasts were treated with doxorubicin to induce early cellular senescence. […]

[2] = tested on: human retinal pigmented epithelial cells (ARPE-19); assay: SAβG activity staining in senescent retinal pigmented epithelial cells; conditions: premature senescent retinal pigmented epithelial cells by doxorubicin; 100 nM, 4 days; vs DMSO-treated group; p<0.01
Description: Each cell was treated in a serum-free culture solution containing 0.5 μM doxorubicin for 4 hours. After washing the cells with a serum-free culture solution, the cells were cultured for 4 days in a culture solution containing 10% FBS, and then cellular aging was confirmed by staining with senescence-associated beta galactosidase (SAβG). After each sample was dissolved in DMSO, young cells, replicative senescent cells, and premature senescent cells treated with doxorubicin were treated with 100 nM zotarolimus, 100 nM rapamycin, 100 nM ABT263, respectively. After incubation for 4 days in a 37° C., 5% CO2 incubator, the degree of cell growth was confirmed by CCK-8 analysis, the degree of cellular aging was confirmed by senescence-related beta-galactosidase (SAβG) staining, The cells were washed with 1× phosphate buffer solution, and fixed with a phosphate buffer solution containing 3.7% (v/v) paraformaldehyde. After adding 1 mg/ml 5-bromo-4-chloro-3-indolyl-6-D-galactoside, 40 mM citric acid-sodium phosphate (pH 6.0), 5 mM potassium ferricyanide, 5 mM potassium ferrocyanide, 150 mM NaCl, and 2 mM MgCl2 solution, it was reacted at 37° C. for 18 hours. It was stained with eosin as a control stain. Cells stained blue in the cytoplasm were identified using an optical microscope. […]

[3] = tested on: human tubular epithelial cell (HK2); assay: CCK-8 cell growth analysis in premature senescent HK2 cells; conditions: premature senescent HK2 cells by doxorubicin; 100 nM, 4 days; vs DMSO-treated group
Description: Each cell was treated in a serum-free culture solution containing 0.5 μM doxorubicin for 4 hours. After washing the cells with a serum-free culture solution, the cells were cultured for 4 days in a culture solution containing 10% FBS, and then cellular aging was confirmed by staining with senescence-associated beta galactosidase (SAβG). After each sample was dissolved in DMSO, young cells, replicative senescent cells, and premature senescent cells treated with doxorubicin were treated with 100 nM zotarolimus, 100 nM rapamycin, 100 nM ABT263, respectively. After incubation for 4 days in a 37° C., 5% CO2 incubator, the degree of cell growth was confirmed by CCK-8 analysis, the degree of cellular aging was confirmed by senescence-related beta-galactosidase (SAβG) staining, Young cells (1×10^3 cells/well) or senescent cells (2×10^3 cells/well) were dispensed into a 96-well plate, and cultured overnight in a 37° C., 5% CO2 incubator. Zotarolimus, ABT263 and rapamycin were treated at each concentration, and then incubated for 4 days in a 37° C., 5% CO2 incubator. […] Then, the absorbance was measured at 450 nm using a microplate reader. The degree of cell growth was expressed as a relative value for the absorbance of the control group treated with only DMSO as 100%. […]

In the case of `CO[C@H]1C[C@@H]2CC[C@@H](C)[C@@](O)(O2)C(=O)C(=O)N2CCCC[C@H]2C(=O)O[C@H]([C@H](C)C[C@@H]2CC[C@H](n3cnnn3)[C@H](OC)C2)CC(=O)[C@H](C)/C=C(\C)[C@@H](O)[C@@H](OC)C(=O)[C@H](C)C[C@H](C)/C=C/C=C/C=C/1C` [zotarolimus], the SAβG activity ([1]; premature senescent fibroblasts by doxorubicin, vs DMSO-treated group) was “decreased compared to the DMSO-treated group”, the “SAβG activity compared with rapamycin” value ([1]; replicative senescent fibroblasts, 100 nM each, p<0.05) was “significantly reduced than that of rapamycin” and the SAβG activity ([1]; replicative senescent fibroblasts, vs DMSO, p<0.01) was “significantly reduced”. The SAβG activity staining [2] was “significantly decreased” and the “cell growth (CCK-8)” value [3] was “no difference in the growth”.
